Active and inactive are the calls of the source.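 The calls were made as follows: active = AC50 no more than tenfold above the top dose tested, or full inhibition at every dose with a flat fit (cut at about 19 µM in these data); inconclusive = flat curve fit with inhibition between 30% and 70%, or poor fit; inactive = AC50 more than tenfold above the top dose tested.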
System: HMLE_sh_eGFP viability, CellTiter-Glo luminescence, 72 h
Test: viability loss of HMLE_sh_eGFP cells – cell-based, luminescence, counter-screen for HMLE_sh_ECad selective toxicity project, dose response (AID 463074);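 also: counterscreen control line to flag general toxicity for the HMLE_sh_ECad screen; potency for loss of viability as luminescence drops below DMSO wells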

Row | SMILES | AC50
1 | Cc1cccc(NC(=S)N/N=C/c2ccc([N+](=O)[O-])s2)c1 | 6.78 µM
2 | NC(=O)CC(NC(=O)c1ccc(Br)cc1)c1ccc(N2CCCCCC2)c([N+](=O)[O-])c1 (stereo not drawn) | 19.6 µM
3 | CCCCCc1ccc(OCCCC[n+]2cccc(C)c2)c(CCCCC)c1 | 7.42 µM
4 | C[C@]12CCC(O)CC1CCC1C2CC[C@]2(C)C(c3cc(C(F)(F)F)n[nH]3)CCC12 (stereo partly drawn) | 1.78 µM
5 | COc1ccc(Cn2c3ccc(OC)cc3c3nc4ccccc4nc32)cc1 | 17.8 µM
6 | C/C(=N/NC(=O)c1ccc(-c2ccccc2)cc1)c1cc(O)cc(O)c1 | 3.85 µM
7 | CCOC(=O)c1c(C)sc2c1N(C(=O)CCl)c1cc(Cl)ccc1S2 | 3.66 µM
8 | O=C(Nc1ccc(Cl)c(Cl)c1)O/N=C/c1ccncc1 | 10.1 µM
9 | COc1ccc(C[C@H]2CN3C(=NC[C@@H]3Cc3ccccc3)N2CCNC(=O)CCC2CCCCC2)cc1 | 7.04 µM
10 | Cc1cccc(NC(=O)c2nc[nH]c2C(=O)N[C@@H](C)c2ccccc2)c1 | 12 µM
11 | COc1ccc(/C=N/NC(=O)CCn2cnc(-c3ccccc3)c2-c2ccccc2)cc1OC | 0.922 µM
12 | CCCOc1c(Cl)cc(C(=O)Nc2ccc3c(c2)OCO3)cc1OCC | 5.39 µM
13 | CNC(CC(=O)c1ccc([N+](=O)[O-])cc1)C(Cl)(Cl)Cl (stereo not drawn) | 3.96 µM
14 | Cc1nc(C2CCC3C4CCC5=CC(=O)CC[C@]5(C)C4CC[C@]23C)cs1 (stereo partly drawn) | 7.15 µM
15 | CCCCNc1c(-c2ccc(OC)c(SC(C)CC)c2)nc2ccc(C)cn12 (stereo not drawn) | 6.78 µM
16 | O=C(N/N=C/c1cc([N+](=O)[O-])ccc1O)c1c[nH]c2ccccc12 | 16.5 µM
17 | C=C1C(=O)C=C[C@]2(C)C[C@@H]3OC(=O)[C@](C)(O)[C@H]3C[C@@H]12 | 9.76 µM
18 | CCCCCCSc1cccc(-c2nc3cc(C)ccn3c2NC2CCCCC2)c1 | 9.77 µM
19 | Cc1ccccc1C(=O)N1CCN(c2ccc(NC(=O)c3ccc([N+](=O)[O-])o3)cc2)CC1 | 4.37 µM
20 | Cc1c(C2(O)CCCCC2)[nH]c2ccc(C(F)(F)F)cc12 | 6.11 µM
21 | c1ccc(CNc2c(-c3cccc(SC4CCCCC4)c3)nc3ccccn23)cc1 | 3.6 µM
22 | O=c1[nH]c(/C(Cl)=C/c2cc(Cl)ccc2O)nc2cc(Cl)ccc12 | 2.37 µM
23 | COc1ccc(/C=C/C(=O)c2ccc([N+](=O)[O-])o2)cc1OC | 2.47 µM
24 | Cn1nc(-c2ccc(Cl)cc2)c2cc(C(=O)NCCCN3CCOCC3)sc21 | 5.94 µM
25 | CC1CCCN(CCCNC(=O)c2cc3c(Cl)nc4ccccc4c3s2)C1 (stereo not drawn) | 8.14 µM
26 | Cn1c(O)c(/C=N/Nc2ccccc2)c(=O)n(C)c1=O | 4.08 µM

Row | SMILES | AC50
27 | Cc1ccc(Cl)cc1N1CCN(C(CC(C)C)c2nnnn2CC2CCCO2)CC1 (stereo not drawn) | 0.808 µM
28 | O=C1c2cccc3cccc(c23)C(=O)N1CCN1CCN(CC(O)COc2ccc3ccccc3c2)CC1 (stereo not drawn) | 6.81 µM
29 | CN(C)S(=O)(=O)Oc1cccc(C(=O)Nc2ccc(Cl)c(Cl)c2)c1 | 6.22 µM
30 | O=C(CN1c2ccccc2Sc2ccccc21)NNC(=O)Nc1ccc(Cl)c(Cl)c1 | 3.46 µM
31 | O=C(NC(NC(=S)Nc1ccccc1)C(Cl)(Cl)Cl)c1cccc(Cl)c1 (stereo not drawn) | 5.36 µM
32 | Oc1ccc(/C=N/Nc2ncc(Br)cn2)c(O)c1 | 5.8 µM
33 | CC(NCc1ccc(OCc2ccc(Cl)cc2)cc1)C(O)c1ccccc1 (stereo not drawn) | 3.57 µM
34 | Cc1ccc(NC(=S)N(CCCN2CCCC2)Cc2cccn2Cc2ccc(Cl)cc2)cc1Cl | 4.92 µM
35 | O=C/C=C/c1c(-c2ccccc2)cc2oc3ccccc3cc1-2 | 9.18 µM
36 | NC(=O)c1cc([N+](=O)[O-])ccc1NCc1ccc(O)cc1 | 3.1 µM
37 | COc1ccc(OC)c(C(=O)/C=C/c2ccccc2C(F)(F)F)c1 | 6.67 µM
38 | COc1ccc(-c2cn(CCc3c[nH]c4ccccc34)nn2)cc1 | 2.69 µM
39 | O=C(N/N=C/c1ccc2c(c1)OCO2)c1ccc(COCC(F)(F)C(F)F)cc1 | 1.64 µM
40 | O=[N+]([O-])c1ccccc1-c1ccc(C(=S)N2CCN(c3ccccc3)CC2)o1 | > 19.5 µM (inactive)
41 | CCCn1nc([N+](=O)[O-])c(C(C#N)c2nc3ccccc3o2)c(Cl)c1=O (stereo not drawn) | 5.81 µM
42 | Cc1cc(C)c(OCCCCN2CCNCC2)c(C)c1 | 16 µM
43 | CCCCCc1cc(=O)oc2c(C(CCN3CCCCC3)c3cc(OC)c(OC)c(OC)c3)c(OC)cc(OC)c12 (stereo not drawn) | 6.95 µM
44 | O=c1[nH]c(CN2CC=C(c3ccccc3)CC2)nc2scc(-c3ccccc3)c12 | 5.19 µM
45 | Cc1ccc(NS(=O)(=O)c2cc3c4c(cccc4c2)C(=O)NC3=O)cc1C | 6.49 µM
46 | CCCCN=C(NNc1ccc(Br)cc1)C(=O)OCC | 3.99 µM
47 | O=C(CSCc1cccc(Br)c1)N/N=C/c1ccc2c(c1)OCO2 | 5.34 µM
48 | CC1(C)C[C@@H]2C[C@@](C)(CN2C(=O)c2cc(COc3cccc(C(F)(F)F)c3)on2)C1 | 4.8 µM
49 | O=C(C#Cc1ccccc1)Nc1cccc(F)c1 | 3.43 µM
50 | Cc1ccccc1C(=O)Nc1ccc(-c2nc3ccc(C(=O)c4ccccc4)cc3[nH]2)cc1 | 1.8 µM
51 | O=C(Nc1ccc([N+](=O)[O-])cc1)Nc1ccc(OC(F)F)c(Cl)c1 | 2.09 µM
52 | O=C(N/N=C/c1cccc(O)c1)c1ccc(COc2ccccc2Br)cc1 | 6.42 µM

Row | SMILES | AC50
53 | Oc1ccc(Cl)cc1-c1cc(-c2cccc(Br)c2)n[nH]1 | 6.39 µM
54 | O=C1C(C2=NC(c3ccccn3)C3C(=O)N(c4ccc(Cl)cc4Cl)C(=O)C23)=C(O)c2ccccc21 (stereo not drawn) | > 19.5 µM (inactive)
55 | CC1=NN(c2ccccc2)C(=O)/C1=C\C=C\c1ccccc1 | 3.55 µM
56 | CCN(CC)S(=O)(=O)c1ccc2c(c1)C(=NO)c1cc(S(=O)(=O)N(CC)CC)ccc1-2 | 0.756 µM
57 | COc1cc(/C=C(\C#N)C(=O)NC2CCCCC2C)ccc1OS(=O)(=O)c1ccc(C)cc1 (stereo not drawn) | 6.69 µM
58 | CC(=O)c1ccc(N2CCN(S(=O)(=O)c3cc(-c4cc(C)no4)ccc3C(C)C)CC2)cc1 | 0.205 µM
59 | CC(C)CC(=O)c1c(O)c(C=O)c(O)c2c1O[C@@]1(C)[C@@H](C2)C[C@H]2C[C@@H]1C2(C)C | 6.32 µM
60 | Cc1ccc(NNC(=O)C(O)(c2cccc(C(F)(F)F)c2)c2cccc(C(F)(F)F)c2)cc1 | 3.29 µM
61 | O=S(=O)(NCc1ccncc1)c1ccc(S(=O)(=O)NCC2CCCO2)cc1 (stereo not drawn) | > 19.5 µM (inactive)
62 | CN(CCO)c1cc(Sc2nc3ccccc3s2)c2nonc2c1[N+](=O)[O-] | 2.49 µM
63 | CC1(C)CC[C@]2(CO)CC[C@]3(C)C(=CCC4[C@@]5(C)CC[C@H](O)[C@@](C)(CO)C5CC[C@]43C)[C@@H]2C1 (stereo partly drawn) | 3.97 µM
64 | O=C1c2ccccc2NC(c2ccc(-c3ccc(Br)cc3)o2)N1O (stereo not drawn) | 5.06 µM
65 | NC(=O)CC(NC(=O)Cc1ccc(Br)cc1)c1ccc(N2CCN(c3ccccc3)CC2)c([N+](=O)[O-])c1 (stereo not drawn) | 17.6 µM
66 | COc1ccc(C(C)NCCC(c2ccc(OC(C)C)cc2)c2ccccc2OC)cc1 (stereo not drawn) | 5.44 µM
67 | Fc1ccc2[nH]c3c(N4CCc5ccccc5C4)ncnc3c2c1 | 7.36 µM
68 | O=[N+]([O-])c1ccc(N/N=C/c2c[nH]c3ccccc23)c(S(=O)(=O)Nc2ccc(Cl)cc2)c1 | 1.66 µM
69 | O=C(CN(c1ccc(Cl)cc1)S(=O)(=O)c1ccc(Cl)c([N+](=O)[O-])c1)NCCc1ccc(F)cc1 | 3.81 µM
70 | CN(C)c1ccc(-n2cccc2/C=C/[N+](=O)[O-])cc1 | 3.63 µM
71 | S=C(Nc1ccccc1)Nc1nc2ccccc2n1CCOc1ccc(Br)cc1 | 14 µM
72 | O=C(N/N=C/c1ccc(Cl)c([N+](=O)[O-])c1)c1cc(-c2ccccc2)nc2ccccc12 | 4.52 µM
73 | COc1ccc(NC(=O)c2cc(-c3ccccc3OC)on2)cc1 | 0.983 µM
74 | COc1ccc(NS(=O)(=O)c2ccc(O)c(NC(=O)c3cc4c(C)nn(-c5ccc(F)cc5)c4s3)c2)cc1 | 2.49 µM
75 | CC1=CC(C)(C)N(S(=O)(=O)c2ccc(F)cc2)c2ccc(C)cc21 | 2.61 µM
76 | Cc1ccc(S(=O)(=O)Nc2ccc(-c3nnc(SCc4ccccc4Cl)o3)cc2)cc1 | 5.7 µM
77 | O=C1NC(=O)N(Cc2ccccc2)C(=O)/C1=C\C=C\c1ccco1 | 1.93 µM
78 | Cc1cc2oc(=O)c(CC(=O)NCCCN(C)C)c(C)c2c2occ(C(C)(C)C)c12 | 2.85 µM

Row | SMILES | AC50
79 | CCCCCCc1cc2cc(S(=O)(=O)c3ccc(C)cc3)c(=O)oc2cc1O | 2.43 µM
80 | CCCCC(=O)NC(c1ccco1)c1cc(Cl)c2cccnc2c1O (stereo not drawn) | 5.79 µM
81 | CC1CCN(c2nc(Cl)nc(Nc3ccc([N+](=O)[O-])cc3)n2)CC1 | 3.41 µM
82 | CCCCc1ccc(/C(C)=N/Nc2cc(N3CCOCC3)nc(C)n2)cc1 | 4.99 µM
83 | CCCC(=O)NC(c1ccc2c(c1)OCO2)c1cc(Cl)c2cccnc2c1O (stereo not drawn) | 3.1 µM
84 | CC(C)c1ccc(/C=N/NC(=O)c2ccccn2)cc1 | > 19.5 µM (inactive)
85 | CCCCNc1c(-c2ccc(SC3CCCCC3)c(OC)c2)nc2ccc(C)cn12 | 3.49 µM
86 | O=C1C=CC(=O)N1c1ccc(OC(F)F)cc1 | 11.9 µM
87 | CCOC(=O)c1c(NC(=O)C(c2ccccc2)c2ccccc2)sc2c1C1CCN2CC1 | 2.84 µM
88 | Clc1ccc(CO/N=C/c2c(-c3ccccc3)nc3n2CCS3)c(Cl)c1 | 4.62 µM
89 | C=C1CCN([C@@H](CC(C)C)C(=O)Nc2nc3ccc(Cl)cc3s2)S(=O)(=O)c2ccccc21 | 14.5 µM
90 | O=C(O)c1ccc(C=C(c2nc3ccccc3s2)c2nc3ccccc3s2)cc1 | 5.12 µM
91 | c1ccc(-c2c3ccccc3nc3[nH]c4ccccc4c23)cc1 | 2.95 µM
92 | c1ccc(N(c2ccccc2)c2nc(N3CCCC3)nc(-n3ccnc3)n2)cc1 | 6.28 µM
93 | CCC(CO)Oc1cc(NCc2ccc(Cl)cc2Cl)c2ncn(C(C)C)c2c1 (stereo not drawn) | 7.64 µM
94 | Cc1ccsc1/C=C/c1ccc2cccc(O)c2n1 | 17 µM
95 | Cn1nnnc1Sc1ncnc2scc(-c3cc4ccccc4o3)c12 | 1.17 µM
96 | O=C(Nc1cccc(Cl)c1)c1nc[nH]c1C(=O)NCCCNC(=O)c1[nH]cnc1C(=O)Nc1cccc(Cl)c1 | 5.33 µM
97 | O=C(Nc1ccc(Oc2c(F)c(F)c(F)c(F)c2F)cc1)OC1CCN2Cc3ccccc3N=C12 (stereo not drawn) | 1.21 µM
98 | O=C1c2c(Br)c(Br)c(Br)c(Br)c2C(=O)N1c1ccccn1 | 3.65 µM
99 | CN[C@H]1CCc2cc(OC)c(OC)c(OC)c2-c2ccc(N(C)CC(OC)OC)c(=O)cc21 | 2.15 µM
100 | CCNC(=S)N1N=C2c3ccccc3CCC2C1c1ccc(F)cc1 (stereo not drawn) | 2.91 µM
101 | CC1=NN(c2nc(-c3ccc(Cl)cc3)cs2)C(=O)C1 | 12.3 µM
102 | CCN(CC)CCCNC(=O)c1cc2c(Cl)nc3ccccc3c2s1 | 5.16 µM
103 | C#CCOCCOCCOCCNc1nc(N2CCN(C(=O)CCCCCCCCCCNC(=O)Cn3cc(C[C@@H](C)O)nn3)CC2)nc(N2CCN(C(=O)CCCCCCCCCCNC(=O)[C@@H]([C@H](C)O)n3cc(C)nn3)CC2)n1 | 4.83 µM

From PubChem BioAssay AID463074 (Broad Institute, 2010)
